{"source": "patent US4335250A", "about": "“Compound with immunopotentiating activity and production and uses thereof” (Banyu Pharmaceutical Co., Ltd., priority 1978, dated 1982)", "key": {"antibody-forming cells": {"tested_on": "antibody-forming cells", "conditions": "cited from earlier work"}, "alkaline phosphatase": {"tested_on": "alkaline phosphatase", "conditions": "cited from earlier work"}, "[1]": {"tested_on": "delayed-type hypersensitivity", "conditions": "cited from earlier work"}, "IMC Carcinoma [2]": {"tested_on": "IMC Carcinoma", "assay": "Inhibitory effect on IMC Carcinoma, 5×10^6 cells transplanted", "format": "in vivo, CDF1 mouse (female, 14 weeks)", "conditions": "5 days, 30 days; for Average weight of tumors: untreated 12380 mg; for Inhibition: tumor growth", "excerpt": "5×10^6 IMC tumor cells were transplanted hypodermically to the inguinal section of each CDF1 mouse under test (female, 14 weeks old, 5 mice per group)."}, "[3]": {"tested_on": "cellular immunity (cell-mediated immunity), DTH response to sheep red blood cells", "assay": "Delayed-type hypersensitivity (footpad swelling), CDF1 mice", "format": "in vivo, CDF1 mouse (male, 9 weeks)", "conditions": "other strains of mice of different ages"}, "IMC Carcinoma [4]": {"tested_on": "IMC Carcinoma", "assay": "Inhibitory effect on IMC Carcinoma, 1×10^6 cells inoculated", "format": "in vivo, CDF1 mouse (female, 14 weeks)", "conditions": "for Average weight of tumors: untreated 5635 mg; for Inhibition: tumor growth", "excerpt": "This Example illustrates the inhibitory effect of BF-127 substance on IMC Carcinoma. […] Pathological studies have shown that the above tumor is a sort of epithelial undifferentiated tumors.\n5×10^6 IMC tumor cells were transplanted hypodermically to the inguinal section of each CDF1 mouse under test (female, 14 weeks old, 5 mice per group). 8 days after transplantation, a varying dose of BF-127 substance was intraperitoneally injected into each test mouse once a day for five successive days. 30 days after transplantation, the tumor formed were removed and weighed to evaluate the inhibitory effect of BF-127 substance on tumor growth in terms of average weight of the tumors formed in 5 mice.\nFurther tests were conducted following the procedure as above wherein 1×10^6 IMC tumor cells were inoculated and BF-127 substance was intraperitoneally injected (I.P.) or orally administered (P.O.)."}, "[5]": {"tested_on": "cellular immunity (cell-mediated immunity), DTH response to sheep red blood cells", "assay": "Delayed-type hypersensitivity (footpad swelling), CDF1 mice", "format": "in vivo, CDF1 mouse (male, 9 weeks)", "protocol": "(§1) Thus, 10^8 sheep red blood cells (SRBC) suspended in 0.05 ml of physiological saline were subcutaneously injected at the time of immunization to the right hind footpad of each ICR mouse under test (female, 6 weeks aged) to establish delayed-type hypersensitivity. Simultaneously with the immunization, a varying dose of BF-127 substance was intraperitoneally injected into each test mouse. Four days later, 10^8 sheep red blood cells were subcutantaneously injected into the left hind footpad of each test mouse for elicitation of the D.T.H. response. 24 hours after eliciting injection, the thickness of the left hind footpad was measured with a vernier caliper to evaluate the degree of the resulting edema in the footpad. The degree of the swelling serves to estimate the cellular immunity involved. In the Table, the swelling degree is expressed in terms of the values calculated by the equation: [formula]\nThe same test procedure as described in Example 7 was repeated but using CDF1 (DBA/2xBALB/CF1) male mice (9 weeks old), in which varying doses of BF-127 substance were intraperitoneally injected or orally administered into each test mouse. The tests results are shown in Table 3 below where the swelling degree has the same significance as in Example 7."}, "[6]": {"tested_on": "cellular immunity (cell-mediated immunity), DTH response to sheep red blood cells", "assay": "Delayed-Type Hypersensitivity (D.T.H.) technique, ICR mice immunized with sheep red blood cells (footpad swelling)", "format": "in vivo, ICR mouse (female, 6 weeks)", "conditions": "for Increase in thickness of footpad: 24 h after eliciting injection, control 8.3 ± 1.0; for Swelling degree: ICR mice, vs control", "protocol": "In this Example, the effect of BF-127 substance on cellular immunity (cell-mediated immunity) was tested according to a known Delayed-Type Hypersensitivity (D.T.H.) technique (see P. H. Lagrange, G. B. Mackaness and T. E. Mille, \"J. Exp. Med\", 139, 1529-1539 (1974) using mice immunized with sheep red blood cells as antigen.\nas §1\nBy way of reference, the test results conducted by the same procedure as above except that BF-127 substance was orally administered are indicated in Table 2 below."}, "Gardner Lymphoma": {"tested_on": "Gardner Lymphoma", "assay": "Inhibitory effect on growth of transplanted Gardner Lymphoma", "format": "in vivo, C3H/He mouse (female, 10 weeks)", "conditions": "for Average weight of tumors / Inhibition: 5 days, 30 days after transplantation; for Average weight of tumors: untreated 1310 mg; for Inhibition: tumor growth", "excerpt": "10^5 Gardner Lymphoma cells were transplanted subcutaneously to the inguinal of each C3H/He mouse under test (female, 10 weeks old, 5 mice per group)."}, "immune response": {"tested_on": "immune response", "conditions": "Japanese Patent Pre-publication No. 44632/79; U.S. Pat. No. 4,238,507; cited from earlier work"}, "[7]": {"conditions": "20 μg/mouse (Control) i.p. once a day"}, "[8]": {"conditions": "100 μg/mouse (Control) i.p. once a day"}}}
{"molecule": "NC(C(=O)O)c1ccc(C=O)c(O)c1", "note": "(stereo not drawn) [Forphenicine]", "values": [{"measurement": "number of antibody-forming cells", "setting": "antibody-forming cells", "value": "increases the number of antibody-forming"}, {"measurement": "inhibition of alkaline phosphatase", "setting": "alkaline phosphatase", "value": "strong inhibitor"}, {"measurement": "delayed-type hypersensitivity", "setting": "[1]", "value": "enhances delayed-type hypersensitivity"}]}
{"molecule": "CO[C@@]12[C@H](COC(N)=O)C3=C(C(=O)C(C)=C(N)C3=O)N1C[C@@H]1N[C@@H]12", "note": "[MMC, Mytomycin, reference compound]", "values": [{"measurement": "Average weight of tumors", "setting": "IMC Carcinoma [2]; [7]", "value": 5510, "unit": "mg"}, {"measurement": "Inhibition", "setting": "IMC Carcinoma [2]; [7]", "value": 55.5, "unit": "%"}]}
{"molecule": "O=C(O)c1ccc(CO)c(O)c1", "note": "[BF-127, 3-hydroxy-4-(hydroxymethyl) benzoic acid]", "values": [{"measurement": "Average weight of tumors", "setting": "IMC Carcinoma [2]; 1 μg/mouse i.p. once a day", "value": 5740, "unit": "mg"}, {"measurement": "Average weight of tumors", "setting": "IMC Carcinoma [2]; 10 μg/mouse i.p. once a day", "value": 6190, "unit": "mg"}, {"measurement": "Average weight of tumors", "setting": "IMC Carcinoma [2]; 100 μg/mouse i.p. once a day", "value": 7970, "unit": "mg"}, {"measurement": "Inhibition", "setting": "IMC Carcinoma [2]; 1 μg/mouse i.p. once a day", "value": 53.6, "unit": "%"}, {"measurement": "Inhibition", "setting": "IMC Carcinoma [2]; 10 μg/mouse i.p. once a day", "value": 50.0, "unit": "%"}, {"measurement": "Inhibition", "setting": "IMC Carcinoma [2]; 100 μg/mouse i.p. once a day", "value": 35.6, "unit": "%"}, {"measurement": "immunopotentiating effect", "setting": "[3]", "value": "also observed"}, {"measurement": "Average weight of tumors", "setting": "IMC Carcinoma [4]; 1 μg/mouse (I.P.)", "value": 2206, "unit": "mg"}, {"measurement": "Average weight of tumors", "setting": "IMC Carcinoma [4]; 1 μg/mouse (P.O.)", "value": 2538, "unit": "mg"}, {"measurement": "Average weight of tumors", "setting": "IMC Carcinoma [4]; 10 μg/mouse (I.P.)", "value": 1312, "unit": "mg"}, {"measurement": "Average weight of tumors", "setting": "IMC Carcinoma [4]; 10 μg/mouse (P.O.)", "value": 2638, "unit": "mg"}, {"measurement": "Inhibition", "setting": "IMC Carcinoma [4]; 1 μg/mouse (I.P.)", "value": 60.8, "unit": "%"}, {"measurement": "Inhibition", "setting": "IMC Carcinoma [4]; 1 μg/mouse (P.O.)", "value": 55.0, "unit": "%"}, {"measurement": "Inhibition", "setting": "IMC Carcinoma [4]; 10 μg/mouse (I.P.)", "value": 76.8, "unit": "%"}, {"measurement": "Inhibition", "setting": "IMC Carcinoma [4]; 10 μg/mouse (P.O.)", "value": 53.0, "unit": "%"}, {"measurement": "Swelling degree", "setting": "[5]; 0.1 μg/mouse, I.P. injection", "value": 119, "unit": "%"}, {"measurement": "Swelling degree", "setting": "[5]; 0.1 μg/mouse, oral administration", "value": 103, "unit": "%"}, {"measurement": "Swelling degree", "setting": "[5]; 1 μg/mouse, I.P. injection", "value": 129, "unit": "%"}, {"measurement": "Swelling degree", "setting": "[5]; 1 μg/mouse, oral administration", "value": 115, "unit": "%"}, {"measurement": "Swelling degree", "setting": "[5]; 10 μg/mouse, I.P. injection", "value": 131, "unit": "%"}, {"measurement": "Swelling degree", "setting": "[5]; 10 μg/mouse, oral administration", "value": 122, "unit": "%"}, {"measurement": "Swelling degree", "setting": "[5]; 100 μg/mouse, I.P. injection", "value": 133, "unit": "%"}, {"measurement": "Swelling degree", "setting": "[5]; 100 μg/mouse, oral administration", "value": 142, "unit": "%"}, {"measurement": "Swelling degree", "setting": "[5]; 1 mg/mouse, I.P. injection", "value": 125, "unit": "%"}, {"measurement": "Swelling degree", "setting": "[5]; 1 mg/mouse, oral administration", "value": 138, "unit": "%"}, {"measurement": "Increase in thickness of footpad", "setting": "[6]; 0.1 μg/mouse i.p.", "value": "14.3 ± 1.1", "unit": "× 0.1 mm"}, {"measurement": "Swelling degree", "setting": "[6]; 0.1 μg/mouse i.p.", "value": 172, "unit": "%"}, {"measurement": "Increase in thickness of footpad", "setting": "[6]; 1 μg/mouse i.p.", "value": "19.4 ± 1.8", "unit": "× 0.1 mm"}, {"measurement": "Swelling degree", "setting": "[6]; 1 μg/mouse i.p.", "value": 234, "unit": "%"}, {"measurement": "Increase in thickness of footpad", "setting": "[6]; 10 μg/mouse i.p.", "value": "15.5 ± 1.3", "unit": "× 0.1 mm"}, {"measurement": "Swelling degree", "setting": "[6]; 10 μg/mouse i.p.", "value": 187, "unit": "%"}, {"measurement": "Swelling degree", "setting": "[6]; 10 μg/mouse oral", "value": 146, "unit": "%"}, {"measurement": "Increase in thickness of footpad", "setting": "[6]; 100 μg/mouse i.p.", "value": "15.7 ± 0.3", "unit": "× 0.1 mm"}, {"measurement": "Swelling degree", "setting": "[6]; 100 μg/mouse i.p.", "value": 189, "unit": "%"}, {"measurement": "Swelling degree", "setting": "[6]; 100 μg/mouse oral", "value": 148, "unit": "%"}, {"measurement": "Increase in thickness of footpad", "setting": "[6]; 1 mg/mouse i.p.", "value": "13.1 ± 0.4", "unit": "× 0.1 mm"}, {"measurement": "Swelling degree", "setting": "[6]; 1 mg/mouse i.p.", "value": 158, "unit": "%"}, {"measurement": "Swelling degree", "setting": "[6]; 1 mg/mouse oral", "value": 133, "unit": "%"}, {"measurement": "potentiating effect on establishment of cellular immunity", "setting": "[6]; i.p., 1 mg to 0.1 μg/mouse", "value": "intensive potentiating effect"}, {"measurement": "potentiating effect on DTH response", "setting": "[6]; intravenous injection", "value": "potentiating effect has also been observed"}, {"measurement": "potentiating effect on DTH response", "setting": "[6]; oral administration", "value": "potentiating effect has also been observed"}, {"measurement": "potentiation of the DTH response", "setting": "[6]; oral, doses of 1 mg to 10 μg/mouse", "value": "30-50%"}, {"measurement": "potentiating effect on DTH response", "setting": "[6]; subcutaneous injection", "value": "potentiating effect has also been observed"}, {"measurement": "Average weight of tumors", "setting": "Gardner Lymphoma; 0.1 μg/mouse i.p. once a day", "value": 950, "unit": "mg"}, {"measurement": "Average weight of tumors", "setting": "Gardner Lymphoma; 1 μg/mouse i.p. once a day", "value": 930, "unit": "mg"}, {"measurement": "Average weight of tumors", "setting": "Gardner Lymphoma; 10 μg/mouse i.p. once a day", "value": 570, "unit": "mg"}, {"measurement": "inhibition of tumor growth compared to Bleomycin", "setting": "Gardner Lymphoma; BF-127 at 10 μg/mouse", "value": "superior or comparable to Bleomycin"}, {"measurement": "Inhibition", "setting": "Gardner Lymphoma; 0.1 μg/mouse i.p. once a day", "value": 27.5, "unit": "%"}, {"measurement": "Inhibition", "setting": "Gardner Lymphoma; 1 μg/mouse i.p. once a day", "value": 29.0, "unit": "%"}, {"measurement": "Inhibition", "setting": "Gardner Lymphoma; 10 μg/mouse i.p. once a day", "value": 56.5, "unit": "%"}]}
{"molecule": "NC(C(=O)O)c1ccc(CO)c(O)c1", "note": "(stereo not drawn) [forphenicinol]", "values": [{"measurement": "immunopotentiating activity", "setting": "immune response", "value": "found to have an immunopotentiating activity"}]}
{"molecule": "Bleomycin [reference compound]", "values": [{"measurement": "Average weight of tumors", "setting": "IMC Carcinoma [2]; 100 μg/mouse i.p. once a day", "value": 5770, "unit": "mg"}, {"measurement": "Inhibition", "setting": "IMC Carcinoma [2]; 100 μg/mouse i.p. once a day", "value": 53.4, "unit": "%"}, {"measurement": "Average weight of tumors", "setting": "Gardner Lymphoma; [8]", "value": 760, "unit": "mg"}, {"measurement": "Inhibition", "setting": "Gardner Lymphoma; [8]", "value": 42.0, "unit": "%"}]}
